We go through three compounds from patent publication US20230071763A1, “AURISTATIN-RELATED COMPOUNDS, CONJUGATED AURISTATIN-RELATED COMPOUNDS, AND METHODS OF USE THEREOF” (CYTOMX THERAPEUTICS, INC., priority 2020, published 2023).

SMILES strings stand for the structures.

For one data set, the target named is T1, mouse CES-1C (Mus musculus, UniProt P23953).
T1 sequence (P23953 19-554): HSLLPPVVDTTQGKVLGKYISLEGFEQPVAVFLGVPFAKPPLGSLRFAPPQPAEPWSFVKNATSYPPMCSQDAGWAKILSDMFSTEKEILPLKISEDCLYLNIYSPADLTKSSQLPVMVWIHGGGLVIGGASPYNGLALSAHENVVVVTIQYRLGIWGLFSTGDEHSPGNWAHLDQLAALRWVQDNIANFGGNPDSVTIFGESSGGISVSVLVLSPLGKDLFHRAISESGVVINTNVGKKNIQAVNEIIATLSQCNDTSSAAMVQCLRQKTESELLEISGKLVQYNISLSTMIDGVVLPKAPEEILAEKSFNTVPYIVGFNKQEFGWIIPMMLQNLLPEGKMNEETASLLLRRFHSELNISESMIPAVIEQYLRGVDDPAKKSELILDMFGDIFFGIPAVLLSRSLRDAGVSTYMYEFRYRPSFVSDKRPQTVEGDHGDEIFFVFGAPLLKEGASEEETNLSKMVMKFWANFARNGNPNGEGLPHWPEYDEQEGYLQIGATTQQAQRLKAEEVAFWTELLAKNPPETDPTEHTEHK
Briefly: Stability to carboxylesterase, mouse CES-1C. The data set is classed as in vitro ADME. The note with it: 37° C., in 48 hrs. As to the method: (§1) In a further exemplary study, the stability of the substrates were determined in the presence of […] different carboxylesterases (human or mouse CES-1 and CES-1C). In this study, the enzymes were activated prior to substrate introduction and then incubated with the substrate at 37° C. over a 48 h time period.

The target in the next data set is T2, human CES-1C (Homo sapiens, UniProt P23141).
T2 sequence (P23141 18-566 isoform P23141-3 limits assumed): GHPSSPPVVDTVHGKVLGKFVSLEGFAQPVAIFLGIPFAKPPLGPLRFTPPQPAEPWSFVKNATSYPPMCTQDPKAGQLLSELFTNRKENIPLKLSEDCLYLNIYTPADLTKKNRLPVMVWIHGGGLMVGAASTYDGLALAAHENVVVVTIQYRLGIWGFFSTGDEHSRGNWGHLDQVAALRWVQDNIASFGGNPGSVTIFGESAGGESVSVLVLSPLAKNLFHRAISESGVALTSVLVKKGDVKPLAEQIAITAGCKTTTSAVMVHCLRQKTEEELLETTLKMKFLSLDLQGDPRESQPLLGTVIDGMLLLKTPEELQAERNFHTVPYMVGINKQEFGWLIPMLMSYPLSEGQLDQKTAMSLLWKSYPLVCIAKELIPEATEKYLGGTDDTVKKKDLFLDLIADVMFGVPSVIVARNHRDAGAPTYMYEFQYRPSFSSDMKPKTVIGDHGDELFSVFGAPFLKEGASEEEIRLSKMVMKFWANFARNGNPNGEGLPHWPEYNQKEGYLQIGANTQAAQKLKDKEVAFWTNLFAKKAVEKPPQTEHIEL
The data set is described as follows: Stability to carboxylesterase, human CES-1C. It counts as in vitro ADME. The note with it: 37° C., in 48 hrs. As for the experimental part: as §1

The next data set has as its system SKOV3. The data set is described as follows: In vitro cytotoxicity (Presto Blue), SKOV3. It counts as cell-based. The conditions noted are these: 5 days treatment, percent survival. As to the method: (§2) In this assay, the test cells were plated and grown to an appropriate cell density (e.g., 1500 cells/well (50 μL per well) for SW780 cells). The cells were treated with the drug (MMATH or MMAE (monomethylauristatin E)) at concentrations ranging from 10 μM to 10^−4 nM in triplicate for 5 days. On the day 6 endpoint, the cells were incubated with 20 μL of Presto Blue @ 37 C for 2 hr and the signal was read on a Biotek synergy H4 plate reader. After media background was subtracted, the percent survival was calculated and plotted to determine the EC50, as shown in the exemplary results of Table 1.

The test system of a further data set is SW780 cells. The data set is described as follows: In vitro cytotoxicity (Presto Blue), SW780. It counts as cell-based. The conditions noted are these: 5 days treatment, percent survival. As to the method: as §2
The subject of a further data set is HCC1954. The data set is described as follows: In vitro cytotoxicity (Presto Blue), HCC1954. The data set is classed as cell-based. The conditions noted are these: 5 days treatment, percent survival. As to the method:
as §2

The test system of another data set is PC3. Briefly: In vitro cytotoxicity (Presto Blue), PC3. The data set is classed as cell-based. The note with it: 5 days treatment, percent survival. As to the method: as §2
The next data set addresses tubulin. Briefly: Binding to tubulin.

Consider `CC[C@H](C)C([C@@H](CC(=O)N1CCC[C@H]1[C@H](OC)[C@@H](C)C(=O)N[C@H](C)[C@@H](O)c1ccccc1)OC)N(C)C(=O)[C@@H](NC(=O)[C@@H](NC)C(C)C)C(C)C` (some centres unmarked) [Cys-vc-MMAE], for which the “cleavage by mouse CES-1C” value on mouse CES-1C is reported as “completely cleaved”. Also, the “cleavage by human CES-1C” value on human CES-1C is reported as “completely cleaved”.
With `CC[C@H](C)[C@@H]([C@@H](CC(=O)N1CCC[C@H]1[C@H](OC)[C@@H](C)C(=O)N[C@H](C)[C@@H](O)c1ccccc1)OC)N(C)C(=O)[C@@H](NC(=O)[C@@H](NC)C(C)C)C(C)C` [MMAE, monomethylauristatin E], the EC50 is 0.19 nM with SKOV3; 0.31 nM with SW780 cells (first SW780 column); 0.22 nM with SW780 cells (second SW780 column); 0.03 nM in the data set on HCC1954; 0.24 nM in the data set on PC3. The compound further gave a Kd on tubulin of 69.9 nM.
With `CCC(C)C(C(CC(=O)N1CCCC1C(OC)C(C)C(=O)NC(CO)Cc1cccs1)OC)N(C)C(=O)C(NC(=O)C(NC)C(C)C)C(C)C` (centres unmarked) [MMATH], the EC50 was 0.2 nM with SKOV3 (Homo sapiens, SK-OV-3, 120 h); 0.38 nM with SW780 cells (Homo sapiens, SW780, 120 h, first SW780 column); 0.26 nM in the data set with SW780 cells (Homo sapiens, SW780, 120 h, second SW780 column); 0.03 nM with HCC1954 (Homo sapiens, HCC1954, 120 h); 0.24 nM in the data set on PC3 (Homo sapiens, PC-3, 120 h). The affinity on tubulin, expressed as Kd, was 204 nM.

One may read the EC50 as the concentration at which the effect is half-maximal. The Kd is the equilibrium constant for the complex coming apart. The low end stands for a tighter complex, the high end for a looser complex.
